{"source": "patent US5605915A", "about": "“Acetylenes disubstituted with a 5 substituted tetrahydronaphthyl group and with an aryl or heteroaryl group having retinoid-like biological activity” (Allergan, priority 1996, dated 1997)", "origin": "cited, not measured here", "test_system": "ornithine decarboxylase (ODC)", "conditions": "literature statement"}
{"smiles": "CCCCCCCCCCCCCC(=O)O[C@@H]1[C@@H](C)[C@@]2(O)[C@@H](C=C(CO)C[C@]3(O)C(=O)C(C)=C[C@@H]23)[C@@H]2C(C)(C)[C@]12OC(C)=O", "note": "[12-0-tetradecanoylphorbol-13-acetate]", "values": [{"measurement": "effect on ODC activity", "result": "induces ODC activity"}]}
{"smiles": "CC1=C(/C=C/C(C)=C/C=C/C(C)=C/C(=O)O)C(C)(C)CCC1", "note": "[Retinoic acid]", "values": [{"measurement": "effect on ODC activity", "result": "inhibits this induction of ODC activity by TPA"}]}
